Assay results reported in publication PMC5562523 (Cell chemical biology, 2017).

Experiments:
CDC1551 katG::Tn mutant = assay type: cell-based, Mycobacterium tuberculosis; conditions: pH 5.7
CDC1551 (ΔphoPR) = assay type: cell-based; conditions: acidic pH

COc1ccc(NC(=O)c2nc(S(C)(=O)=O)ncc2Cl)cc1Cl [AC2P36, 5-chloro-N-(3-chloro-4-methoxyphenyl)-2-methylsulfonylpyrimidine-4-carboxamide]
sensitivity of WT, katG::Tn mutant and complemented strain to AC2P36 (CDC1551 katG::Tn mutant): No difference was observed between the three strains | sensitivity of ΔphoPR mutant vs WT to AC2P36 (CDC1551 (ΔphoPR)): no differences were observed between WT or ΔphoPR sensitivity to AC2P36
